Paper PMC7582737, “Melanocortin Receptor 4 (MC4R) Signaling System in Nile Tilapia” (International Journal of Molecular Sciences, 2020)

Key:
[1] = target: tilapia melanocortin receptor 4 (MC4R), N-terminally 3xFlag-tagged (Nile tilapia (Oreochromis niloticus))
[2] = system: tilapia MC4R + MRAP2b; details: HEK293 cells; cited from earlier work
Description: The presence of all MC4R signaling components in tilapia led us to further examine their interaction in vitro. […] Our finding partly agrees with recent findings in spotted gar, tilapia, topmouth culter, and zebrafish, showing that MC4R could be activated by mam ...

[3] = system: MC4R; parameters: method as in PMID 24085819, PMID 31398355, PMID 31299224, PMID 32922362; details: mammalian peptides; cited from earlier work
[4] = system: rainbow trout; details: cited from earlier work
[5] = system: goldfish; details: cited from earlier work
Description: In the brain, all genes were detected to be highly or moderately expressed. This finding is consistent with previous reports in teleosts, such as zebrafish and medaka, in which all the genes are expressed in the brain as detected by qRT-PCR assays.

[6] = system: zebrafish; details: ip/icv injection of MC4R agonist; cited from earlier work
[7] = target: tilapia melanocortin receptor 4 (MC4R), N-terminally 3xFlag-tagged (Nile tilapia (Oreochromis niloticus)); remark: listed apart in the source
[8] = ip/icv injection of MC4R agonist

| Molecule | activation of MC4R, relative potency (in words) [3] | EC50 of activating the cAMP/PKA signaling pathway (pGL3-CRE-luciferase reporter) in CHO cells expressing tilapia MC4R in the presence of MRAP2b [7] | EC50 of activating the cAMP/PKA signaling pathway (pGL3-CRE-luciferase reporter) in CHO cells expressing tilapia MC4R, without MRAP2b [7] [nM] | further results |
| --- | --- | --- | --- | --- |
| tilapia melanocortin-2 receptor accessory protein 2b (MRAP2b), N-terminally Myc-tagged (natural protein) |  |  |  | sensitivity and selectivity of MC4R for ACTH(1-40) with MRAP2b co-expressed, against MC4R alone (EC50 0.246 nM vs. 0.032 nM; pGL3-CRE-luciferase reporter, CHO cells) [1]: 8 fold |
| ACTH1-39 | with similar potencies |  |  | effect of MRAP2b on EC50 value in activating tilapia MC4R [2]: cannot significantly alter the EC50 value |
| MTII |  |  |  | effect on feeding, rainbow trouts [4, 8]: reduce the feeding; effect on feeding, goldfish [5, 8]: reduce the feeding; effect on feeding, zebrafish [6]: reduce the feeding |
| HS024 |  |  |  | effect on food intake, rainbow trout ([4]; injection of MC4R antagonist): stimulate food intake; effect on food intake, goldfish ([5]; injection of MC4R antagonist): stimulate food intake |
| NDP-α-MSH | with similar potencies |  |  |  |
| ACTH1-24: mammalian ACTH1-24 (cited) | with similar potencies |  |  |  |
| SYSMEHFRWGKPVGRKRRPVKVYTSNGVAEESAEVFPEEM [tilapia ACTH(1-40) (derived from the POMCa1 precursor)] |  | 32 pM | 0.246 |  |
| Ac-SYSMEHFRWGKPV-NH2 [tilapia α-MSH (acetyl-α-MSH with an amidated C-terminus; derived from the POMCa1 precursor)] |  | 0.786 nM | 0.955 |  |
| DGSYKMKHFRWSGPPAS [tilapia β-MSH (derived from the POMCa1 precursor)] |  | 0.572 nM | 0.421 |  |
